Four compounds from patent US20080069860A1, “HYPERPHOSPHATEMIA IN DOMESTIC ANIMALS: COMPOSITIONS AND METHODS OF TREATMENT” (priority 2005, published 2008) can be followed below.

One data set deals with beagle dogs. Kind of data set: Dog study, urine phosphate excretion after oral capsules. It counts as in vivo. The following applies: 2250 mg elemental lanthanum twice daily, urine approximately 24 hours after dosing.
Data set [1] relates to Sprague-Dawley rats underwent 5/6th nephrectomy. Kind of data set: In vivo study in 5/6th nephrectomy rats, urine phosphorus excretion. The following applies: 314 mg elemental lanthanum/kg/day oral, once daily for 14 days, compared to untreated rats. Here is the method:
Groups of six adult Sprague-Dawley rats underwent 5/6th nephrectomy in two stages over a period of 2 weeks and were then allowed to recover for a further two weeks prior to being randomized for treatment. The groups received vehicle (0.5% w/v carboxymethyl cellulose), or lanthanum oxycarbonate suspended in vehicle, once daily for 14 days by […] (10 ml/kg/day). The dose delivered 314 mg elemental lanthanum/kg/day. Dosing was carried out immediately before the dark (feeding) cycle on each day. Urine samples (24 hours) were collected prior to surgery, prior to the commencement of treatment, and twice weekly during the treatment period. Volume and phosphorus concentration were measured.
Feeding—During the acclimatization and surgery period, the animals were given Teklad phosphate sufficient diet (0.5% Ca, 0.3%P; Teklad No. TD85343), ad libitum. At the beginning of the treatment period, animals were pair fed based upon the average food consumption of the vehicle-treated animals the previous week.
5/6 Nephrectomy—After one week of acclimatization, all animals were subjected to 5/6 nephrectomy surgery. The surgery was performed in two stages. First, the two lower branches of the left renal artery were ligated. One week later, a right nephrectomy was performed. […]

The next data set has as its system dogs. The experiment in a line: Palatability study in dogs. The following applies: 9 dogs, during hours post meal. It counts as in vivo. The source says:
Lanthanum oxycarbonate was mixed with wet and dry dog food and presented to 9 different dogs, almost all over 40 pounds.

With `O=C([O-])[O-].[La+3].[OH-]` [compound A, LaCO3OH], the “urine phosphate excretion, a marker of phosphorous binding” value in the data set on beagle dogs is “reduction of urine phosphate excretion”. For the compound `O=C([O-])[O-].[La+3].[OH-]` [lanthanum carbonate hydroxide], the “phosphorus excretion (urine), a marker of dietary phosphorus binding” value in data set [1] is recorded as “decrease in phosphorus excretion”. On to lanthanum oxycarbonate, for which the “signs of nausea, vomiting, bloating or flatus” value in the data set with dogs is reported as “None of the dogs exhibited signs of nausea, vomiting, bloating or flatus”. The “phosphorus excretion (urine), a marker of dietary phosphorus binding” value in data set [1] is recorded as “decrease in phosphorus excretion”.

Regarding `O=C([O-])[O-].[La+3].[La+3].[O-2].[O-2]` [compound B, La2O2CO3], the “urine phosphate excretion, a marker of phosphorous binding” value with beagle dogs was “reduction of urine phosphate excretion”.
